Reference: publication PMC7044277 (Nature Communications, 2020)
“Also recorded” adds a separate entry of the source.

Legend:
[1] = target: T1, DRD2 (D2 long receptor) (Homo sapiens, UniProt P14416); experiment: β-arrestin2 recruitment (Tango), HTLA cells; assay type: cell-based
[2] = target: T2, DRD3 (Homo sapiens, UniProt P35462); experiment: β-arrestin2 recruitment (Tango); assay type: cell-based
[3] = target: DRD2 (D2 long receptor) wild-type (Homo sapiens, UniProt P14416); experiment: Radioligand competition binding, [3H]-N-methylspiperone, HEK293T membranes; details: Ki
Chain of DRD2 (D2 long receptor) wild-type (P14416 whole entry): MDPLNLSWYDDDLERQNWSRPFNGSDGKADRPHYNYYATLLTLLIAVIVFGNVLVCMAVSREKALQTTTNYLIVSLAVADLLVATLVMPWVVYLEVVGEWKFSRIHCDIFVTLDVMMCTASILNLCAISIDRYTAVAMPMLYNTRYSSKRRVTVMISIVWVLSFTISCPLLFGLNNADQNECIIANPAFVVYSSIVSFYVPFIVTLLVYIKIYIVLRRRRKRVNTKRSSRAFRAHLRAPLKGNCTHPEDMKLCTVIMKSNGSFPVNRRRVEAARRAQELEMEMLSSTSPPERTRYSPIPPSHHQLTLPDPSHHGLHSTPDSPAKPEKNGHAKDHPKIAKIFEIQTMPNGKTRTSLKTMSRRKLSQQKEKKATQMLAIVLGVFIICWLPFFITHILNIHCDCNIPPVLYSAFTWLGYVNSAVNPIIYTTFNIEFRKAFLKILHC

[4] = target: T2, DRD3; experiment: Gαi/o-mediated cAMP inhibition (GloSensor); assay type: cell-based
[5] = target: T3, DRD4 (D4.4 variant) wild-type (Homo sapiens, UniProt P21917); experiment: Radioligand competition binding, [3H]-N-methylspiperone; details: Ki
T3 sequence (P21917 1-419): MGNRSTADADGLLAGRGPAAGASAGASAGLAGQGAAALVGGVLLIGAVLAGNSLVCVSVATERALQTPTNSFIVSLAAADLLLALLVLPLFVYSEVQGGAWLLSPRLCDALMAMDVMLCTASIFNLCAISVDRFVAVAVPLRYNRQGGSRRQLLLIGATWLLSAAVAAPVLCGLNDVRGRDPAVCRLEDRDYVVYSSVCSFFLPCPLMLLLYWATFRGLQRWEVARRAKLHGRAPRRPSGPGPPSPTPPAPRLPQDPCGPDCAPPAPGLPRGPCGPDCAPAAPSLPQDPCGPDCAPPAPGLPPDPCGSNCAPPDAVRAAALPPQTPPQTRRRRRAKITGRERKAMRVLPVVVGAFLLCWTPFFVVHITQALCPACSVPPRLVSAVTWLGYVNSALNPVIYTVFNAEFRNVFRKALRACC

[6] = target: T4, DRD2 S1975.46G (Homo sapiens, UniProt P14416, S197G); experiment: Gαi/o-mediated cAMP inhibition (GloSensor), mutant; assay type: cell-based; details: DRD2 Ser197^5.46Gly; G-protein assay
T4 construct: expressed in transfected cells; host or cells: HEK293T (ATCC CRL-11268)
T4 sequence (P14416 whole entry S197G): as the sequence (P14416 whole entry) above, with S197G counted along it

[7] = target: T5, DRD4 (D4.4 variant) (Homo sapiens, UniProt P21917); experiment: Gαi/o-mediated cAMP inhibition (GloSensor); assay type: cell-based
T5 sequence (P21917 1-419): T3 sequence (P21917 1-419)

[8] = target: DRD3 wild-type (Homo sapiens, UniProt P35462); experiment: Radioligand competition binding, [3H]-N-methylspiperone
Chain of DRD3 wild-type (P35462 whole entry): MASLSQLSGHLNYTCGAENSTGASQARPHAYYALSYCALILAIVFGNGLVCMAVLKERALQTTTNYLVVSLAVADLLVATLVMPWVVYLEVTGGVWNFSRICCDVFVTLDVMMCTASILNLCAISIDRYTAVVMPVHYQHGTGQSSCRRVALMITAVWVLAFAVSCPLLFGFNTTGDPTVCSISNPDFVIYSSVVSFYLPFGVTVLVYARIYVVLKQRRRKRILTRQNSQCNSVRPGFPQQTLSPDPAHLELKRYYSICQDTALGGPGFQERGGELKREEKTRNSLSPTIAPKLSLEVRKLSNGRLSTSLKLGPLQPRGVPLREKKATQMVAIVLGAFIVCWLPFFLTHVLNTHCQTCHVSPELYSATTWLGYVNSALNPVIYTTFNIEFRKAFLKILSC

[9] = target: T5, DRD4 (D4.4 variant); experiment: β-arrestin2 recruitment (Tango); assay type: cell-based
[10] = target: T1, DRD2 (D2 long receptor); experiment: Gαi/o-mediated cAMP inhibition (GloSensor split-luciferase cAMP reporter), HEK293T; assay type: cell-based;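 note: compounds applied 15 min at room temperature, then luciferin plus 400 nM isoproterenol to raise cAMP through endogenous β2-adrenergic receptors, luminescence read 15 min later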
[11] = target: DRD2 F1103.28A (Homo sapiens, UniProt P14416, F110A); details: previous published studies; cited from earlier work
Chain of DRD2 F1103.28A (P14416 whole entry F110A): as the sequence (P14416 whole entry) above, with F110A counted along it

[12] = read-out: Emax relative to quinpirole response

T1 sequence (P14416 whole entry): as the sequence (P14416 whole entry) above
T2 sequence (P35462 whole entry): as the sequence (P35462 whole entry) above

Row | Structure (SMILES) | EC50 [1] [nM] | Emax ([1]; HTLA, read-out: Emax relative to quinpirole response) [%] | EC50 [2] [nM] | Emax [2, 12] [%] | Ki [3] [nM] | EC50 [4] [nM] | Emax [4, 12] [%] | Ki [5] [nM] | agonism after serine to glycine substitution [6] | EC50 [7] [nM] | G protein agonist activity ([7]; DRD4, cAMP inhibition) | Ki [8] [nM] | EC50 [9] [nM] | β-arrestin2 recruitment agonist activity ([9]; DRD4, Tango) | EC50 [10] [nM] | Emax ([10]; HEK-293T, read-out: Emax relative to quinpirole response) [%] | effect of Phe110^3.28Ala mutation on binding [11]
1 | CC(CCc1ccccc1[N+](=O)[O-])NCC1(O)CCCCC1 (centres unmarked) [O7LE6] | 6.95 | 85.3 | 117 | 88.5 | 1410 | 1.96 | 82.7 | > 10000 | substantially diminished | > 10000 | no DRD4 activity | 174 | > 10000 | no DRD4 activity | 1.13 | 100 | 
2 | Cc1nc2n(c(=O)c1CCN1CCC(c3noc4cc(F)ccc34)CC1)CCCC2 [risperidone] |  |  |  |  |  |  |  |  |  |  |  |  |  |  |  |  | did not enhance the binding; also recorded: didn’t enhance the binding
